{
  "source": "paper PMC12951562",
  "about": "“SH2scan: Mapping SH2 Domain-Ligand Binding Selectivity for Inhibitors and Degraders” (Journal of Medicinal Chemistry, 2026)",
  "test_in_all_cases": "biochemical",
  "type_in_all_cases": "binding",
  "key": {"DAPP1": {"molecular_target": "T1, DAPP1 (Homo sapiens, UniProt Q9UN19)", "T1 construct": "the DNA-tagged SH2 domain concentrations used in this study were <0.1 nM; made in house; host or cells: HEK293 (transient transfection; unpurified extract)", "T1 sequence (Q9UN19 35-129 limits assumed)": "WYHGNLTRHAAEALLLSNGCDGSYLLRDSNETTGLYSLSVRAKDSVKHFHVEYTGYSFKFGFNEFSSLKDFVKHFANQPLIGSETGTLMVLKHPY"}, "SOCS4": {"molecular_target": "T2, SOCS4 (Homo sapiens, UniProt Q8WXH5)", "T2 construct": "made in house; host or cells: HEK293 (transient transfection), unpurified extract", "T2 sequence (Q8WXH5 1-440)": "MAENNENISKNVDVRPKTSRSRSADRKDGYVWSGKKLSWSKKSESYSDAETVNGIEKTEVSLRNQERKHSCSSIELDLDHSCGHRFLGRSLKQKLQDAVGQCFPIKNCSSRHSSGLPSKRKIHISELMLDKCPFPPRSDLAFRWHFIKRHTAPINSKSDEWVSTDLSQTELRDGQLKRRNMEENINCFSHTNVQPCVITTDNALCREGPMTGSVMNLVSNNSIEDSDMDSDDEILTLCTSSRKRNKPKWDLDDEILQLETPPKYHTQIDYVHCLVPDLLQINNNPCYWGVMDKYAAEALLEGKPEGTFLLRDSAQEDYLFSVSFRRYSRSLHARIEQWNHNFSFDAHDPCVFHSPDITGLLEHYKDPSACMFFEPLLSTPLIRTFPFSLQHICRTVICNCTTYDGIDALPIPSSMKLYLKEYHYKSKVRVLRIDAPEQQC"}, "STAP1": {"molecular_target": "T3, STAP1 (Homo sapiens, UniProt Q9ULZ2)", "T3 construct": "made in house; host or cells: HEK293 (transient transfection), unpurified extract", "T3 sequence (Q9ULZ2 1-295)": "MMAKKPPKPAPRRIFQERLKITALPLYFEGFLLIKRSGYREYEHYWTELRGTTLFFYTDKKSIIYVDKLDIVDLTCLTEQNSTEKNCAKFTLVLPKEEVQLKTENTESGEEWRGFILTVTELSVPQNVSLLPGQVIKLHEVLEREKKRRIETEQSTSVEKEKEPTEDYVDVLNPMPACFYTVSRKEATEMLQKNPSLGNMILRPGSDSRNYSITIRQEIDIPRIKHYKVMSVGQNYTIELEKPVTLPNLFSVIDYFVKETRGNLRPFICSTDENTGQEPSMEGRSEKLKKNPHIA"}, "STAP2": {"molecular_target": "T4, STAP2 (Homo sapiens, UniProt Q9UGK3)", "T4 construct": "made in house; host or cells: HEK293 (transient transfection), unpurified extract", "T4 sequence (Q9UGK3 1-403)": "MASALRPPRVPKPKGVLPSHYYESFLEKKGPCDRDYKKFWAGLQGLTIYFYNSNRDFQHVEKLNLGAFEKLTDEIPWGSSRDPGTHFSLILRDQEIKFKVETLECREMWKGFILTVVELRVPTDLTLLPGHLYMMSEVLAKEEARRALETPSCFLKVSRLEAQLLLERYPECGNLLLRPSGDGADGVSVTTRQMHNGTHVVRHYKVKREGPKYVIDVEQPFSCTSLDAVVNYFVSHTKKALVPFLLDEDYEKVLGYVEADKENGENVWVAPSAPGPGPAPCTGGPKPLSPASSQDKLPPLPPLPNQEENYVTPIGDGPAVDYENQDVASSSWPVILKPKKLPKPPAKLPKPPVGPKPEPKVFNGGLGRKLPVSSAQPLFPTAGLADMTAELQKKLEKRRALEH"}, "PTPN6(SH2dom.C-term.)": {"molecular_target": "T5, PTPN6(SH2dom.C-term.) (Homo sapiens, UniProt P29350)", "T5 construct": "SH2dom.C-term. denotes SH2 domain closest to C-terminus of protein; made in house; host or cells: HEK293 (transient transfection, unpurified extract)", "T5 sequence (P29350 110-213 limits assumed)": "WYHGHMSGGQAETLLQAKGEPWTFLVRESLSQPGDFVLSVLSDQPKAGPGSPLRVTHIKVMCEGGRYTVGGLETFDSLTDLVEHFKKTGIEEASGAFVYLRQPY"}, "RASA1(SH2dom.C-term.)": {"molecular_target": "T6, RASA1(SH2dom.C-term.) (Homo sapiens, UniProt P20936)", "T6 construct": "SH2dom.C-term. denotes SH2 domain closest to C-terminus of protein; made in house; host or cells: HEK293 (transient transfection, unpurified extract)", "T6 sequence (P20936 351-441 limits assumed)": "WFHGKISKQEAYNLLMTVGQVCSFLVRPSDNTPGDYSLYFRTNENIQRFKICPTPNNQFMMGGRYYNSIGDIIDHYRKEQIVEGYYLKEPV"}, "BLNK": {"molecular_target": "T7, BLNK (Homo sapiens, UniProt Q8WV28)", "T7 construct": "the DNA-tagged SH2 domain concentrations used in this study were <0.1 nM; made in house; host or cells: HEK293 (transient transfection; unpurified extract)", "T7 sequence (Q8WV28 346-453 limits assumed)": "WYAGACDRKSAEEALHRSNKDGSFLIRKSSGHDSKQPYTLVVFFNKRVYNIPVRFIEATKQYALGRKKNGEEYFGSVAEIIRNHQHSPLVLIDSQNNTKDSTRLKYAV"}, "MIST": {"molecular_target": "T8, MIST (Homo sapiens, UniProt Q7Z7G1)", "T8 construct": "the DNA-tagged SH2 domain concentrations used in this study were <0.1 nM; made in house; host or cells: HEK293 (transient transfection, unpurified extract)", "T8 sequence (Q7Z7G1 309-419 limits assumed)": "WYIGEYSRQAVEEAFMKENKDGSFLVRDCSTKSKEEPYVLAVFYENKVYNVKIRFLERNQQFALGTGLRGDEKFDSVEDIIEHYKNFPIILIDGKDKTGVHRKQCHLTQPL"}, "ITK": {"molecular_target": "T9, ITK (Homo sapiens, UniProt Q08881)", "T9 construct": "the DNA-tagged SH2 domain concentrations used in this study were <0.1 nM; made in house; host or cells: HEK293 (transient transfection, unpurified extract)", "T9 sequence (Q08881 239-338 limits assumed)": "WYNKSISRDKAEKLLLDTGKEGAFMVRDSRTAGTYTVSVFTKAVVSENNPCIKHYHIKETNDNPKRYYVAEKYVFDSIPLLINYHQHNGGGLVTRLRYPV"}, "APS (SH2B2)": {"molecular_target": "T10, APS (SH2B2) (Homo sapiens, UniProt O14492)", "T10 construct": "the DNA-tagged SH2 domain concentrations used in this study were <0.1 nM; made in house; host or cells: HEK293 (transient transfection; unpurified extract)", "T10 sequence (O14492 417-515 limits assumed)": "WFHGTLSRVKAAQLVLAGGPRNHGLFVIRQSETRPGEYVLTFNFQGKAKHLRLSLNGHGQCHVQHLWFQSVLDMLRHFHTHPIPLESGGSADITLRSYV"}, "SLP76": {"molecular_target": "T11, SLP76 (Homo sapiens, UniProt Q13094)", "T11 construct": "made in house; host or cells: HEK293 (transient transfection), unpurified extract", "T11 sequence (Q13094 1-533)": "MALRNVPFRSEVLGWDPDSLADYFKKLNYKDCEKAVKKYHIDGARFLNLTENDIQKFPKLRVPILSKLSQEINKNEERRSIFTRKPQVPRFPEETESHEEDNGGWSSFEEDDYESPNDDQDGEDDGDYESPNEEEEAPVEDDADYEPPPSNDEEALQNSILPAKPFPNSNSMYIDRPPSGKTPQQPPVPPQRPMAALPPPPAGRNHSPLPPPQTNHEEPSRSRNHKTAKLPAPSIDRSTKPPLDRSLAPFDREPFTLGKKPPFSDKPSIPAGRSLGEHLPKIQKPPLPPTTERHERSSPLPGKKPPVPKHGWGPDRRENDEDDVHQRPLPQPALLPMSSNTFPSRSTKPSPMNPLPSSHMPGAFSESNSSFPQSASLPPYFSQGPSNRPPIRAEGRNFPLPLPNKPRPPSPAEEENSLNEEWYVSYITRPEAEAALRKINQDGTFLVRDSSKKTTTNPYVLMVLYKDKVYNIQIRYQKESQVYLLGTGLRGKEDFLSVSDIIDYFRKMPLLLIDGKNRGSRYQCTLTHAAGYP"}, "GRB10": {"molecular_target": "T12, GRB10 (Homo sapiens, UniProt Q13322)", "T12 construct": "the DNA-tagged SH2 domain concentrations used in this study were <0.1 nM; made in house; host or cells: HEK293 (transient transfection; unpurified extract)", "T12 sequence (Q13322 493-574 limits assumed)": "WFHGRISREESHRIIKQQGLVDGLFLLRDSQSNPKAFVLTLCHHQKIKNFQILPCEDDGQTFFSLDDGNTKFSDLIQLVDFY"}, "BRK": {"molecular_target": "T13, BRK (Homo sapiens, UniProt Q13882)", "T13 construct": "the DNA-tagged SH2 domain concentrations used in this study were <0.1 nM; made in house; host or cells: HEK293 (transient transfection; unpurified extract)", "T13 sequence (Q13882 78-170 limits assumed)": "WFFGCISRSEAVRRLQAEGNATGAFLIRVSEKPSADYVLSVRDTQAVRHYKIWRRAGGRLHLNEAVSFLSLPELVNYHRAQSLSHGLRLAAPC"}},
  "note": "Non-standard residues stand in square brackets, D forms with d. Residues, ends and D or L forms follow the SMILES beside them. pY = N[C@@H](Cc1ccc(OP(=O)(O)O)cc1)C(=O)O",
  "data": [
    {"molecule": "CC(=O)N[C@@H](CC(C)C)C(=O)N[C@@H](CC(C)C)C(=O)N1CCC[C@H]1C(=O)N[C@@H](CC(C)C)C(=O)N[C@@H](CC(=O)O)C(=O)N[C@@H](CCCCN)C(=O)N[C@@H](CC(=O)O)C(=O)N[C@@H](Cc1ccc(OP(=O)(O)O)cc1)C(=O)N[C@@H](Cc1ccc(OP(=O)(O)O)cc1)C(=O)N[C@H](C(=O)N[C@H](C(=O)N[C@@H](CCCNC(=N)N)C(=O)N[C@@H](CCC(=O)O)C(=O)N1CCC[C@H]1C(=O)NCC(=O)N[C@@H](CCC(N)=O)C(N)=O)C(C)C)C(C)C", "values": [
      {"measurement": "Kd", "setting": "DAPP1", "value": "41.3 ± 5.96", "unit": "µM"},
      {"measurement": "Kd", "setting": "SOCS4", "value": "1.91 ± 0.5", "unit": "nM"}
    ]},
    {"molecule": "CC[C@H](C)[C@H](NC(=O)[C@H](CC(C)C)NC(=O)[C@@H](NC(=O)[C@H](CC(N)=O)NC(=O)[C@H](CCC(=O)O)NC(=O)[C@H](Cc1ccc(OP(=O)(O)O)cc1)NC(=O)[C@H](CO)NC(=O)[C@H](CC(N)=O)NC(=O)[C@H](C)NC(C)=O)C(C)C)C(=O)N[C@@H](C)C(=O)N[C@@H](CCCCN)C(N)=O", "note": "(Ac-ANS[pY]ENVLIAK-NH2)", "values": [
      {"measurement": "Kd", "setting": "STAP1", "value": "2780 ± 615", "unit": "nM"},
      {"measurement": "Kd", "setting": "STAP2", "value": "38.9 ± 7.93", "unit": "µM"}
    ]},
    {"molecule": "CC[C@H](C)[C@H](NC(=O)[C@H](CCC(=O)O)NC(=O)[C@H](CCC(N)=O)NC(=O)[C@H](CCC(=O)O)NC(=O)[C@@H](NC(=O)[C@H](C)NC(C)=O)[C@@H](C)O)C(=O)N[C@H](C(=O)N[C@@H](Cc1ccc(OP(=O)(O)O)cc1)C(=O)N[C@@H](C)C(=O)N[C@@H](CCC(=O)O)C(=O)N[C@@H](CC(C)C)C(=O)N[C@@H](CC(N)=O)C(=O)N[C@@H](CC(C)C)C(=O)N[C@@H](CCC(N)=O)C(=O)N[C@@H](CCCCN)C(N)=O)[C@@H](C)O", "note": "(Ac-ATEQEIT[pY]AELNLQK-NH2)", "values": [
      {"measurement": "Kd", "setting": "PTPN6(SH2dom.C-term.)", "value": "1490 ± 666", "unit": "nM"}
    ]},
    {"molecule": "CSCC[C@H](NC(=O)[C@@H]1CCCN1C(=O)[C@H](CCC(=O)O)NC(=O)[C@H](C)NC(=O)[C@H](Cc1ccc(OP(=O)(O)O)cc1)NC(=O)[C@H](CC(=O)O)NC(=O)[C@H](CO)NC(=O)[C@@H]1CCCN1C(=O)[C@H](CC(=O)O)NC(=O)[C@H](Cc1ccccc1)NC(=O)CNC(C)=O)C(=O)N[C@@H](CC(=O)O)C(=O)N[C@@H](C)C(=O)N[C@H](C(=O)N[C@H](C(N)=O)C(C)C)C(C)C", "note": "(Ac-GFDPSD[pY]AEPMDAVV-NH2)", "values": [
      {"measurement": "Kd", "setting": "RASA1(SH2dom.C-term.)", "value": "4.11 ± 0.48", "unit": "nM"}
    ]},
    {"molecule": "CC(=O)N[C@@H](CC(=O)O)C(=O)N[C@@H](CC(=O)O)C(=O)N[C@@H](CC(=O)O)C(=O)N[C@@H](Cc1ccc(OP(=O)(O)O)cc1)C(=O)N[C@@H](CC(=O)O)C(=O)N[C@@H](CC(=O)O)C(=O)N[C@H](C(=O)N[C@@H](CC(=O)O)C(N)=O)C(C)C", "note": "[Ac-DDDpYDDVD-NH2] (Ac-DDD[pY]DDVD-NH2)", "values": [
      {"measurement": "Kd", "setting": "BLNK", "value": "137 ± 22.4", "unit": "nM"},
      {"measurement": "Kd", "setting": "MIST", "value": "32.9 ± 6.7", "unit": "nM"},
      {"measurement": "Kd", "setting": "ITK", "value": "1450 ± 153", "unit": "nM"},
      {"measurement": "Kd", "setting": "APS (SH2B2)", "value": "8.78 ± 0.971", "unit": "µM"},
      {"measurement": "Kd", "setting": "SLP76", "value": "1410 ± 432", "unit": "nM"},
      {"measurement": "Kd", "setting": "GRB10", "value": "1260 ± 1160", "unit": "nM"},
      {"measurement": "Kd", "setting": "BRK", "value": "226 ± 200", "unit": "nM"}
    ]}
  ]
}
